Experimental data published in the NIST ThermoML archive (doi:10.1016/j.fluid.2014.09.014).

Assay: xn = mol fraction of the nth substance listed
Conditions: 101 kPa, Liquid, mechanical oscillator

CC(C)OC(C)C [diisopropyl ether] + CO
mass density [kg/m3]
Conditions	293.15 K	298.15 K	303.15 K	308.15 K	313.15 K	318.15 K
x2 = 0	723.86	718.3	712.68	707.06	701.5	696.98
x2 = 0.0423	725.34	720.12	–	708.61	702.92	698.39
x2 = 0.0424	725.34	720.13	714.26	708.63	702.94	698.41
x2 = 0.082	727.36	722.06	716.26	710.51	704.95	699.97
x2 = 0.0822	727.37	722.07	716.27	710.52	704.96	699.98
x2 = 0.1171	729.04	723.73	717.96	712.26	706.79	701.61
x2 = 0.1271	729.5	724.19	718.43	712.74	707.29	702.07
x2 = 0.1827	731.99	726.76	720.98	715.35	709.93	704.6
x2 = 0.2162	733.44	728.28	722.47	716.86	711.42	706.1
x2 = 0.251	734.94	729.84	723.99	718.4	712.93	707.66
x2 = 0.3298	738.41	733.39	727.46	721.88	716.3	711.24
x2 = 0.3577	739.69	–	728.71	723.14	717.52	712.55
x2 = 0.445	–	–	733.04	–	–	–
x2 = 0.4525	744.38	739.19	733.18	727.64	721.96	717.21
x2 = 0.522	748.28	–	736.82	731.34	725.66	720.99
x2 = 0.5543	750.25	744.6	738.65	733.22	727.56	722.88
x2 = 0.609	753.85	747.88	742.01	736.67	731.07	726.33
x2 = 0.6529	756.99	750.75	744.97	739.73	734.2	729.37
x2 = 0.7504	764.78	758.11	752.58	747.61	742.24	737.12
x2 = 0.804	769.56	762.86	757.48	752.69	–	–
x2 = 0.807	769.84	763.14	757.78	–	747.67	742.4
x2 = 0.8727	776.23	769.84	764.66	760.14	754.77	749.37
x2 = 0.9253	781.7	775.96	770.89	766.58	761.06	755.7
x2 = 0.9527	784.68	779.45	774.42	770.23	764.57	759.3
x2 = 0.9773	787.42	782.77	777.76	773.67	767.86	762.7
x2 = 0.989	–	784.41	779.41	775.36	769.46	764.38
x2 = 0.9964	–	–	–	776.46	770.49	–
